Assay results reported in patent US11234982B2, “Methods for treating ocular surface pain” (NOVARTIS AG, priority 2019, dated 2022).

Test system: cornea
Assay: Esthesiometry assessment (Part 3): corneal sensitivity, anesthetic effect
Type: in vivo, human
Settings: for Anesthetic effect on the cornea (esthesiometry): single eye drop: tetracaine 0.5%, diclofenac 0.1%, compound I 2.5%
From the text: Part 3 was an esthesiometry assessment to evaluate the anesthetic properties of compound I. Part 3 of the study had four arms, with compound I, vehicle, tetracaine (0.5% ophthalmic solution, used as a positive control) and diclofenac sodium (0.1% ophthalmic solution, used as the active NSAID comparator). Ocular anesthetic was selected because of its established anesthetic effect; however it is not the standard of care due to its negative effect on wound healing. NSAID is the current standard of care for corneal pain after PRK with minimal anesthetic but significant pain control properties. Vehicle eye drops were used as a negative control to enable better determination of the potential anesthetic effect. Twelve healthy subjects, who met the eligibility criteria, were randomized to receive a single eye drop of 4 study treatments, each during 1 of 4 different study days (Days 1, 4, 7 and 10). Each subject was randomized to receive the study treatment according to one of the following four sequences: • Sequence 1: Anesthetic, NSAID, compound I 2.5%, Vehicle • Sequence 2: NSAID, Vehicle, Anesthetic, compound I 2.5% • Sequence 3: Vehicle, compound I 2.5%, NSAID, Anesthetic • Sequence 4: compound I 2.5%, Anesthetic, Vehicle, NSAID
Inclusion Criteria: • Written informed consent was obtained before any assessment was performed. • Healthy male and female subjects aged 18 to 50 years (inclusive), and in good health as determined by past medical history, physical examination, vital signs, ECG, and laboratory tests at Screening. • At Screening, and Baseline, vital signs (systolic and diastolic blood pressure (BP) and pulse rate) were assessed in the sitting position after the subject had rested for at least 3 minutes and again after 3 minutes in the standing position. […] BMI=Body weight (kg)/[Height (m)]^2 • Subjects who were able to communicate well with the Investigator, to understand and comply with the requirements of the study. • For Part 3, subjects Baseline levels of eye sensitivity were to be in the range of 50 to 60 mm (inclusive) as measured by the Cochet-Bonnet esthesiometer.
The first-in-human study further evaluated potential anesthetic effect of topical ocular 2.5% compound I by esthesiometry testing, i.e. measurement of the filament length (cm) when the threshold of cornea touch is perceived.

Structure (SMILES) | Anesthetic effect on the cornea (esthesiometry) | Corneal sensitivity, least squares means, Test vs Ref: vs Diclofenac 0.1% (Tetracaine 0.5% (N=12) vs Diclofenac 0.1% (N=12) at 2.5, 10 and 20 minutes post-dose) | Corneal sensitivity, least squares means, Test vs Ref: vs Vehicle (Tetracaine 0.5% (N=12) vs Vehicle (N=12) at 2.5, 10 and 20 minutes post-dose)
O=C(O)Cc1ccccc1Nc1c(Cl)cccc1Cl [diclofenac, diclofenac sodium, reference compound] | no anesthetic effect |  | 
CCCCNc1ccc(C(=O)OCCN(C)C)cc1 [tetracaine, reference compound] | had an anesthetic effect | statistical and clinical significance were observed | statistical and clinical significance were observed
